Results reported in US10544146B2, “Bicyclic compounds and their use as antibacterial agents and β-lactamase inhibitors” (priority 2011, dated 2020).

Tests used:
Type in all cases: cell-based
[1] = system: metallo β-lactamase producing bacteria; test: MIC in combination with various antibiotics against metallo β-lactamase producing bacteria (Tables 10-12); conditions: substance alone
Procedure: (§1) In the Tables 10-12, compounds of the present invention were tested in combination with various antibiotics against metallo β-lactamase producing bacteria.

E. coli JMI 4080 = test: MIC, antibacterial and synergistic activity; conditions: Escherichia coli, JMI4080, E. coli JMI 4080, Tem-10; substance alone
E. coli JMI 4103 = test: MIC, antibacterial and synergistic activity; conditions: Escherichia coli, JMI4103; E. coli JMI 4103, KPC-2, Tem-1, CMY-Type; substance alone
P. aerug JMI 2686 = test: MIC, antibacterial and synergistic activity; conditions: substance alone
E. coli JMI 2692 = test: MIC, antibacterial and synergistic activity; conditions: Escherichia coli, JMI2692; E. coli JMI 2692, NDM-1, TEM-1, CTX-M-15; substance alone
Procedure: as §1

K. pneumo JMI 2693 = test: MIC, antibacterial and synergistic activity; conditions: K. pneumo JMI 2693, NDM-1 (Cpase); substance alone
Procedure: as §1

E. coli JMI 10767 = test: MIC, antibacterial and synergistic activity; conditions: E. coli JMI 10767, Wt; substance alone
Procedure: as §1

E. coli ATCC 25922 = test: MIC, antibacterial and synergistic activity; conditions: Escherichia coli, ATCC25922, E. coli ATCC 25922, enzyme Wt; substance alone
Procedure: as §1

K. pneumo JMI 2697 = test: MIC, antibacterial and synergistic activity; conditions: K. pneumo JMI 2697, IMP-4 (Cpase); substance alone
Procedure: as §1

P. aerug JMI 149 = test: MIC, antibacterial and synergistic activity; conditions: substance alone
Procedure: as §1

A. baumanii JMI 2659 = test: MIC, antibacterial and synergistic activity; conditions: Acinetobacter baumannii, JMI2659, substance alone
Procedure: as §1

E. coli JMI 10770 = test: MIC, antibacterial and synergistic activity; conditions: E. coli JMI 10770, CTX-M15 (Hyper ESBL); substance alone
K. pneumo JMI 2674 = test: MIC, antibacterial and synergistic activity; conditions: K. pneumo JMI 2674, CTX-M15 (ESBL); substance alone
K. pneumo JMI 4106 = test: MIC, antibacterial and synergistic activity; conditions: substance alone
K. pneumo JMI 4088 = test: MIC, antibacterial and synergistic activity; conditions: substance alone
K. pneumo JMI 2681 = test: MIC, antibacterial and synergistic activity; conditions: substance alone
E. coli JMI 11103 = test: MIC, antibacterial and synergistic activity; conditions: substance alone
E. coli JMI 10768 = test: MIC, antibacterial and synergistic activity; conditions: E. coli JMI 10768, CTX-M15 (Weak ESBL); substance alone
[2] = Citrobacter freundii, Citrobacter freundii isolate 49469, NDM-1
[3] = Enterobacter cloacae, Enterobacter cloacae isolate 4, VIM-6
[4] = Enterobacter cloacae, Enterobacter cloacae isolate 10, IMP-26
[5] = Enterobacter cloacae, Enterobacter cloacae isolate 25, IMP-4
[6] = Enterobacter cloacae, Enterobacter cloacae isolate 1068, VIM-2
[7] = Enterobacter cloacae, Enterobacter cloacae isolate 1280, VIM-5
[8] = Enterobacter cloacae, Enterobacter cloacae isolate 1471, VIM-1
[9] = Enterobacter cloacae, Enterobacter cloacae isolate 1874, IMP-21
[10] = Enterobacter cloacae, Enterobacter cloacae isolate 3686, IMP-1
[11] = Enterobacter cloacae, Enterobacter cloacae isolate 53477, NDM-1
[12] = Escherichia coli, Escherichia coli isolate 13, IMP-1
[13] = Escherichia coli, Escherichia coli isolate 17, NDM-1
[14] = Escherichia coli, Escherichia coli isolate 49, NDM-1
[15] = Escherichia coli, Escherichia coli isolate 53749, NDM-1
[16] = Klebsiella aerogenes, Enterobacter aerogenes isolate 8397, VIM-1
[17] = Klebsiella aerogenes, Enterobacter aerogenes isolate 47683, VIM-12
[18] = Klebsiella oxytoca, Klebsiella oxytoca isolate 24825, IMP-26
[19] = Klebsiella oxytoca, Klebsiella oxytoca isolate 31141, VIM-23
[20] = Klebsiella pneumoniae, Klebsiella pneumoniae isolate 16, VIM-5
[21] = Klebsiella pneumoniae, Klebsiella pneumoniae isolate 38, NDM-1
[22] = Providencia stuartii, Providencia stuartii isolate 26582, VIM-1
[23] = Serratia marcescens, Serratia marcescens isolate 35, IMP-4
[24] = Serratia marcescens, Serratia marcescens isolate 36098, IMP-19
[25] = P. aerug JMI 2686, KPC-2 (Cpase)
[26] = K. pneumo JMI 4106, KPC-3, TEM-1, SHV-12, SHV-141
[27] = K. pneumo JMI 4088, KPC-3 (Cpase)

O=C(NO[C@H]1CCCNC1)[C@@H]1CC[C@@H]2CN1C(=O)N2OS(=O)(=O)O [Ex. 4, (2S,5R)-7-Oxo-N-[(3S)-piperidin-3-yloxy]-6-(sulfooxy)-1,6-diazabicyclo[3.2.1]octane-2-carboxamide]
MIC [1, 2]: > 64 µg/mL | MIC [1, 3]: 64 µg/mL | MIC [1, 4]: 64 µg/mL | MIC [1, 5]: 4 µg/mL | MIC [1, 6]: 4 µg/mL | MIC [1, 7]: 4 µg/mL | MIC [1, 8]: 4 µg/mL | MIC [1, 9]: 2 µg/mL | MIC [1, 10]: 4 µg/mL | MIC [1, 11]: 8 µg/mL | MIC [1, 12]: 2 µg/mL | MIC [1, 13]: 2 µg/mL | MIC [1, 14]: 2 µg/mL | MIC [1, 15]: 2 µg/mL | MIC [1, 16]: > 64 µg/mL | MIC [1, 17]: > 64 µg/mL | MIC [1, 18]: > 64 µg/mL | MIC [1, 19]: > 64 µg/mL | MIC [1, 20]: > 64 µg/mL | MIC [1, 21]: > 64 µg/mL | MIC [1, 22]: > 64 µg/mL | MIC [1, 23]: > 64 µg/mL | MIC [1, 24]: > 64 µg/mL

O=C(NO[C@H]1CCNC1)[C@@H]1CC[C@@H]2CN1C(=O)N2OS(=O)(=O)O [Ex. 2, (2S,5R)-7-Oxo-N-[(3S)-pyrrolidin-3-yloxy]-6-(sulfooxy)-1,6-diazabicyclo[3.2.1]octane-2-carboxamide]
MIC [1, 2]: > 64 µg/mL | MIC [1, 3]: 64 µg/mL | MIC [1, 4]: 64 µg/mL | MIC [1, 5]: 8 µg/mL | MIC [1, 6]: 8 µg/mL | MIC [1, 7]: 4 µg/mL | MIC [1, 8]: 4 µg/mL | MIC [1, 9]: 4 µg/mL | MIC [1, 10]: 4 µg/mL | MIC [1, 11]: 4 µg/mL | MIC [1, 12]: 16 µg/mL | MIC [1, 13]: 4 µg/mL | MIC [1, 14]: 4 µg/mL | MIC [1, 15]: 4 µg/mL | MIC [1, 16]: > 64 µg/mL | MIC [1, 17]: > 64 µg/mL | MIC [1, 18]: > 64 µg/mL | MIC [1, 19]: > 64 µg/mL | MIC [1, 20]: > 64 µg/mL | MIC [1, 21]: > 64 µg/mL | MIC [1, 22]: > 64 µg/mL | MIC [1, 23]: > 64 µg/mL | MIC [1, 24]: > 64 µg/mL

CC(=O)NNC(=O)[C@@H]1CC[C@@H]2CN1C(=O)N2OS(=O)(=O)O [Ex. 40, (2S,5R)-N′-acetyl-7-oxo-6-(sulfooxy)-1,6-diazabicyclo[3.2.1]octane-2-carbohydrazide]
MIC [1, 2]: > 64 µg/mL | MIC [1, 3]: 61 µg/mL | MIC [1, 4]: 61 µg/mL | MIC [1, 5]: 4 µg/mL | MIC [1, 6]: 4 µg/mL | MIC [1, 7]: 4 µg/mL | MIC [1, 8]: 2 µg/mL | MIC [1, 9]: 2 µg/mL | MIC [1, 10]: 2 µg/mL | MIC [1, 11]: 2 µg/mL | MIC [1, 12]: 1 µg/mL | MIC [1, 13]: 2 µg/mL | MIC [1, 14]: 2 µg/mL | MIC [1, 15]: 2 µg/mL | MIC [1, 16]: > 64 µg/mL | MIC [1, 17]: > 64 µg/mL | MIC [1, 18]: > 64 µg/mL | MIC [1, 19]: > 64 µg/mL | MIC [1, 20]: > 64 µg/mL | MIC [1, 21]: > 64 µg/mL | MIC [1, 22]: > 64 µg/mL | MIC [1, 23]: > 64 µg/mL | MIC [1, 24]: > 64 µg/mL

C[C@H]1[C@H](NC(=O)/C(=N\OC(C)(C)C(=O)O)c2csc(N)n2)C(=O)N1S(=O)(=O)O [Aztreonam, aztreonam]
MIC (E. coli JMI 4080): 64 µg/mL | MIC [1, 5]: 64 µg/mL | MIC [1, 7]: 8 µg/mL | MIC [1, 8]: 64 µg/mL | MIC [1, 9]: ≤ 0.12 µg/mL | MIC [1, 10]: 32 µg/mL | MIC [1, 12]: 16 µg/mL | MIC [1, 17]: 4 µg/mL | MIC [1, 19]: 8 µg/mL | MIC [1, 21]: 64 µg/mL | MIC [1, 22]: 32 µg/mL | MIC (E. coli JMI 4103): > 512 µg/mL | MIC (P. aerug JMI 2686; [25]): 512 µg/mL | MIC alone (P. aerug JMI 2686; [25]): >512 µg/mL | MIC (P. aerug JMI 2686; P. aerug JMI 2686, enzyme KPC-2 (Cpase)): 512 µg/mL | MIC (E. coli JMI 2692): > 512 µg/mL | MIC (K. pneumo JMI 2693): > 512 µg/mL | MIC alone (E. coli JMI 10767): ≤1 µg/mL | MIC (E. coli ATCC 25922): 0.25 µg/mL | MIC (K. pneumo JMI 2697): > 512 µg/mL | MIC alone (P. aerug JMI 149; P. aerug JMI 149, Bla+++D+): 512 µg/mL | MIC (P. aerug JMI 149; P. aerug JMI 149, enzyme Bla+++D+): 512 µg/mL | MIC (A. baumanii JMI 2659; A. baumanii JMI 2659, Ges-14 (Cpase)): 512 µg/mL | MIC (A. baumanii JMI 2659; A. baumanii JMI 2659, enzyme Ges-14 (Cpase)): 512 µg/mL | MIC alone (E. coli JMI 10770): 64 µg/mL | MIC alone (K. pneumo JMI 2674): 32 µg/mL | MIC (K. pneumo JMI 4106; [26]): > 512 µg/mL | MIC alone (K. pneumo JMI 4106; [26]): 512 µg/mL | MIC alone (K. pneumo JMI 4106; K. pneumo JMI 4106, enzyme KPC-3, TEM-1, SHV-12, SHV-141): 512 µg/mL | MIC (K. pneumo JMI 4088; [27]): > 512 µg/mL | MIC alone (K. pneumo JMI 4088; [27]): 512 µg/mL | MIC alone (K. pneumo JMI 4088; K. pneumo JMI 4088, enzyme KPC-3 (Cpase)): 512 µg/mL | MIC (K. pneumo JMI 2681; K. pneumo JMI 2681, Oxa-48 (Cpase)): 512 µg/mL | MIC (K. pneumo JMI 2681; K. pneumo JMI 2681, enzyme Oxa-48 (Cpase)): 512 µg/mL | MIC alone (E. coli JMI 11103; E. coli JMI 11103, CTX-M15 (Intermediate ESBL)): 16 µg/mL | MIC (E. coli JMI 11103; Escherichia coli, JMI11103, E. coli JMI 11103, CTX-M15 (Intermediate ESBL)): 32 µg/mL | MIC alone (E. coli JMI 10768): 8 µg/mL
